# Measured values: US4229533A, “Method for producing antibiotic C-15003 P-4” (priority 1977, dated 1980)
# Assays:
# Solubility = format: physicochemical
# Serratia marcescens = assay: Antimicrobial activity by the paper disc method; format: cell-based; details: 8 mm, 0.02 ml of a 300 μg/ml solution, trypticase-soy agar
# Protocol: (§1) With trypticase-soy agar (BBL) as an assay medium, the inhibitory concentrations against the microorganisms described below were investigated by the paper disc method. Thus, filter-paper discs (Toyo Seisakusho, thin-type, 8 mm in dia.) each impregnated with 0.02 ml of a 300 μg/ml solution of P-4 were placed on agar plates respectively inoculated with the microorganisms described below. P-4 had no activity against the following bacteria. Escherichia coli, Proteus vulgaris, Proteus mirabilis, Pseudomonas aeruginosa, Staphylococcus aureus, Bacillus subtilis, Bacillus cereus, Klebsiella pneumoniae, Serratia marcescens and Mycobacterium avium
# Pseudomonas aeruginosa = assay: Antimicrobial activity by the paper disc method; format: cell-based; details: 8 mm, 0.02 ml of a 300 μg/ml solution, trypticase-soy agar
# Protocol: as §1
# Klebsiella pneumoniae = assay: Antimicrobial activity by the paper disc method; format: cell-based; details: 8 mm, 0.02 ml of a 300 μg/ml solution, trypticase-soy agar
# Protocol: as §1
# Bacillus cereus = assay: Antimicrobial activity by the paper disc method; format: cell-based; details: 8 mm, 0.02 ml of a 300 μg/ml solution, trypticase-soy agar
# Protocol: as §1
# Staphylococcus aureus = assay: Antimicrobial activity by the paper disc method; format: cell-based; details: 8 mm, 0.02 ml of a 300 μg/ml solution, trypticase-soy agar
# Protocol: as §1
# Mycobacterium avium = assay: Antimicrobial activity by the paper disc method; format: cell-based; details: 8 mm, 0.02 ml of a 300 μg/ml solution, trypticase-soy agar
# Protocol: as §1
# Escherichia coli = assay: Antimicrobial activity by the paper disc method; format: cell-based; details: 8 mm, 0.02 ml of a 300 μg/ml solution, trypticase-soy agar
# Protocol: as §1
# Proteus vulgaris = assay: Antimicrobial activity by the paper disc method; format: cell-based; details: 8 mm, 0.02 ml of a 300 μg/ml solution, trypticase-soy agar
# Protocol: as §1
# Bacillus subtilis = assay: Antimicrobial activity by the paper disc method; format: cell-based; details: 8 mm, 0.02 ml of a 300 μg/ml solution, trypticase-soy agar
# Protocol: as §1
# Proteus mirabilis = assay: Antimicrobial activity by the paper disc method; format: cell-based; details: 8 mm, 0.02 ml of a 300 μg/ml solution, trypticase-soy agar
# Protocol: as §1
# Fusicladium levieri = assay: Activity against microorganisms; format: cell-based
# P388 leukemia = assay: Antitumour activity upon P388 leukemia in mice; format: in vivo, mouse; details: 1×10^6 cells/animal i.p., 0.00625 mg/kg/day intraperitoneally for 9 consecutive days
# Source text: The therapeutic effects of P-4 (dosed intraperitoneally for 9 consecutive days) upon P388 leukemia in mice (1×10^6 cells/animal, mouse, intraperitoneally transplanted) was investigated.
# Pyricularia oryzae = format: cell-based
# [1] = system: Helminthosporium sigmoidium var. irregulare; assay: Activity against microorganisms; format: cell-based
# Cryptococcus neoformans = assay: Activity against microorganisms; format: cell-based
# [2] = Preliminary acute toxicity test with mice; details: mouse, in vivo, ip, intraperitoneal
# Source text: In a preliminary acute toxicity test with mice as test animals, which involved intraperitoneal injections of P-4.
# Cochlioborus miyabeanus = assay: Activity against microorganisms; format: cell-based
# Sclerotinia screrotiorum = assay: Activity against microorganisms; format: cell-based
# Trichophyton rubrum = assay: Activity against microorganisms; format: cell-based
# Rhodotorula ruba = assay: Activity against microorganisms; format: cell-based
# Pellicularia sasakii = assay: Activity against microorganisms; format: cell-based
smiles,measurement,setting,value
COc1cc2cc(c1Cl)N(C)C(=O)CC(OC(=O)CC(C)C)C1(C)OC1C(C)C1CC(O)(NC(=O)O1)C(OC)C=CC=C(C)C2 (stereo not drawn) [P-4],Solubility,"Solubility; in benzene, ether",Sparingly soluble
same,Solubility,"Solubility; in chloroform, ethyl acetate, acetone, ethanol, methanol, pyridine, tetrahydrofuran, dimethylsulfoxide",Soluble
same,Solubility,"Solubility; in petr. ether, hexane, water",Insoluble
same,activity against Serratia marcescens,Serratia marcescens,no activity
same,activity against Pseudomonas aeruginosa,Pseudomonas aeruginosa,no activity
same,activity against Klebsiella pneumoniae,Klebsiella pneumoniae,no activity
same,activity against Bacillus cereus,Bacillus cereus,no activity
same,activity against Staphylococcus aureus,Staphylococcus aureus,no activity
same,activity against Mycobacterium avium,Mycobacterium avium,no activity
same,activity against Escherichia coli,Escherichia coli,no activity
same,activity against Proteus vulgaris,Proteus vulgaris,no activity
same,activity against Bacillus subtilis,Bacillus subtilis,no activity
same,activity against Proteus mirabilis,Proteus mirabilis,no activity
same,activity against Fusicladium levieri,Fusicladium levieri,had the activity
same,life-span-extending ratio,P388 leukemia,180%
same,activity against Pyricularia oryzae,Pyricularia oryzae,had the activity
same,activity against Helminthosporium sigmoidium var. irregulare,[1],had the activity
same,activity against Cryptococcus neoformans,Cryptococcus neoformans,had the activity
same,LD50,[2],> 0.313 mg/kg
same,activity against Cochlioborus miyabeanus,Cochlioborus miyabeanus,had the activity
same,activity against Sclerotinia screrotiorum,Sclerotinia screrotiorum,had the activity
same,activity against Trichophyton rubrum,Trichophyton rubrum,had the activity
same,activity against Rhodotorula ruba,Rhodotorula ruba,had the activity
same,activity against Pellicularia sasakii,Pellicularia sasakii,had the activity
